Test results as given in ChEMBL document CHEMBL3217435, “Unfolded and macrocyclic ammonium derivatives of diterpenoids steviol and isosteviol having choline moieties. Synthesis and inhibitory activities toward acetylcholine- and butyrylcholinesterases” (Medchemcomm, 2012).

Tests used:
[1] = target: Cholinesterase (Homo sapiens, UniProt P06276); test: Inhibition of human serum BChE using butyrylthiocholine iodide as substrate by visible spectrophotometry
[2] = target: Acetylcholinesterase (Homo sapiens, UniProt P22303); test: Inhibition of human erythrocyte AChE using acetylthiocholine iodide as substrate by visible spectrophotometry
Chain of Acetylcholinesterase (P22303 whole entry): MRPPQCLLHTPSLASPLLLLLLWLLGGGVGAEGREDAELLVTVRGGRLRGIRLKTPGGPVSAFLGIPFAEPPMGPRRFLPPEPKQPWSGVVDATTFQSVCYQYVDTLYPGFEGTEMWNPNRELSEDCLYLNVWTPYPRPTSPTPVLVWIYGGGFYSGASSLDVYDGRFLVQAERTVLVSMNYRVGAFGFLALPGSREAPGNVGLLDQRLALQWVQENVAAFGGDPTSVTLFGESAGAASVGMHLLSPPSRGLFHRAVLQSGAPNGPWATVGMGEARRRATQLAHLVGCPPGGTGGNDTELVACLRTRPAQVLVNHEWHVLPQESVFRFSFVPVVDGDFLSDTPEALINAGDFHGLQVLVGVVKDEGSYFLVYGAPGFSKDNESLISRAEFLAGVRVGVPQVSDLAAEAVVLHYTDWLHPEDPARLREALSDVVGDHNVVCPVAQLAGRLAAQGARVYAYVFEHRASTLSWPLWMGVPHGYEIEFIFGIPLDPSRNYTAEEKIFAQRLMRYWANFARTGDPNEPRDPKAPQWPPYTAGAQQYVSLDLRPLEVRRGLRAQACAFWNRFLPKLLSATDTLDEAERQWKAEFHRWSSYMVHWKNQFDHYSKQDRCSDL

Chain of Cholinesterase (P06276 whole entry): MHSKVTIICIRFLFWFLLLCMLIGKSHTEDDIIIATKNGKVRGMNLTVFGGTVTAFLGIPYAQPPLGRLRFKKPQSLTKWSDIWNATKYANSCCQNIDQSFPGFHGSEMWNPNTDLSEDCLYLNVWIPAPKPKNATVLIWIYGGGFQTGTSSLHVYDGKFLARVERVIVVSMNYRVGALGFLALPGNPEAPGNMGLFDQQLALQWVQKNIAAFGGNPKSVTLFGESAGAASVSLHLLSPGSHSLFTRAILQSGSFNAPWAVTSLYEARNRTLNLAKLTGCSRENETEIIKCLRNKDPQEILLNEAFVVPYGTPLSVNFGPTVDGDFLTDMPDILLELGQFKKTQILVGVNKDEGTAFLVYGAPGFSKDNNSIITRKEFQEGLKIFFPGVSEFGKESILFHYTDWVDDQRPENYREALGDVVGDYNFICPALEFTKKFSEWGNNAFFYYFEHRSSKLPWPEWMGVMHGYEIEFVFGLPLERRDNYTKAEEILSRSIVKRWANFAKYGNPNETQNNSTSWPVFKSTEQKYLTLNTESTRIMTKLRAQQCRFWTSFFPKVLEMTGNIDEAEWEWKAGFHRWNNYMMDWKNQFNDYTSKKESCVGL

Row | Structure (SMILES) | IC50 [1] [µM] | IC50 [2] [µM]
1 | C[C@@]12CC[C@@H]3[C@@](CC[C@H]4[C@@]3(C)CCC[C@@]4(C)C(=O)OCC[N+](C)(C)C)(CC1=O)C2 | 30 | 150
2 | C[C@@]12CC[C@@H]3[C@@](CC[C@H]4[C@@]3(C)CCC[C@@]4(C)C(=O)OCC[N+](C)(C)Cc3ccccc3)(CC1=O)C2 | 6.7 | 30
3 | C[C@@]12CC[C@@H]3[C@@](CC[C@H]4[C@@]3(C)CCC[C@@]4(C)C(=O)OCC[N+](C)(C)CCCCCCCCCC[N+](C)(C)CCOC(=O)[C@]3(C)CCC[C@@]4(C)[C@@H]5CC[C@@]6(C)C[C@]5(CC[C@@H]43)CC6=O)(CC1=O)C2 | 65 | 88
4 | C[C@@]12CC[C@@H]3[C@@](CC[C@H]4[C@@]3(C)CCC[C@@]4(C)C(=O)OCC[N+](C)(C)CCCCCCCCCCCC[N+](C)(C)CCOC(=O)[C@]3(C)CCC[C@@]4(C)[C@@H]5CC[C@@]6(C)C[C@]5(CC[C@@H]43)CC6=O)(CC1=O)C2 | 10 | 2.2
5 | C[C@@]12CC[C@@H]3[C@]4(CC[C@H]5[C@@]3(C)CCC[C@@]5(C)C(=O)OCC[N+](C)(C)CCCCCCCCC[N+](C)(C)CCOC(=O)[C@]3(C)CCC[C@@]5(C)[C@@H]6CC[C@@]7(C)C[C@]6(CC[C@@H]53)C[C@H]7OC(=O)CCCCCCCCC(=O)O[C@@H]1C4)C2 | 60 | 5
6 | CC[N+](CC)(CC)CCOCCOCCOC(=O)[C@]1(C)CCC[C@@]2(C)[C@@H]3CC[C@@]4(C)C[C@]3(CC[C@@H]21)CC4=O | > 1000 | 80
7 | C[C@H]1C[C@@]23CC[C@H]4[C@@](C)(CCC[C@@]4(C)C(=O)OCC[N+](C)(C)C)[C@@H]2CC[C@]1(Cl)C3 | 4.2 | 34
8 | C[C@H]1C[C@@]23CC[C@H]4[C@@](C)(CCC[C@@]4(C)C(=O)OCC[N+](C)(C)Cc4ccccc4)[C@@H]2CC[C@]1(Cl)C3 | 1.6 | 9
